In test [1] the target is T1, FLT3 Autoinh. (Homo sapiens, UniProt P36888).
T1 sequence (P36888 27-993): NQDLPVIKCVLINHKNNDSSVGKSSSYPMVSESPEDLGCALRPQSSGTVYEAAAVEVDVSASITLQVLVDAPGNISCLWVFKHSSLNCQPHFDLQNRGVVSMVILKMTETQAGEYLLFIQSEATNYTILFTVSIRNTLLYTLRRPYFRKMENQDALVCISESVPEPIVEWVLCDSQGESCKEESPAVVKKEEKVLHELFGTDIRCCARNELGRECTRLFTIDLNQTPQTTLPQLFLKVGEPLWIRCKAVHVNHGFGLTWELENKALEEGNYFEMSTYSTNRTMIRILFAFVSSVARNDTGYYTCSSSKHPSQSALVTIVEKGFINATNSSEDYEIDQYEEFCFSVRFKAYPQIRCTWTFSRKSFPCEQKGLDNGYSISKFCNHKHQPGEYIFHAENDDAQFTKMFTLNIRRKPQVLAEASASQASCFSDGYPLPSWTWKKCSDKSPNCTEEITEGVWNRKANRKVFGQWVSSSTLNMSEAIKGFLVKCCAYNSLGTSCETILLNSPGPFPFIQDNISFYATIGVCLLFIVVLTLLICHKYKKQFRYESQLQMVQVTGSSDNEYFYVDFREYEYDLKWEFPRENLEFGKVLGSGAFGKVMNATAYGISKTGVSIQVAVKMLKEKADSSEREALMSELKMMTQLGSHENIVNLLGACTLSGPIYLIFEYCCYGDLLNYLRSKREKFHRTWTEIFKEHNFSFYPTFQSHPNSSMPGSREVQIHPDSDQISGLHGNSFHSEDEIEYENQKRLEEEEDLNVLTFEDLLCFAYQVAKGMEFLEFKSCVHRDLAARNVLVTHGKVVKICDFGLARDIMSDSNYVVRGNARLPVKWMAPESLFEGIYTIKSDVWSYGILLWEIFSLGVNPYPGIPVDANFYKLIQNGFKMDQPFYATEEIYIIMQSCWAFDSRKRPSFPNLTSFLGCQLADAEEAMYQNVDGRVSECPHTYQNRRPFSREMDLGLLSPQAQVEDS
Kind of test: DiscoverX KINOMEscan active site-directed competition binding, FLT3 Autoinh. To be noted: no ATP.
Description: (§1) Kinase binding data were obtained for various exemplary compounds prepared according to Examples 1-8 using the DiscoverX KINOMEscan® active site-directed competition binding site-directed assay protocol described below. […] As a result, the data report thermodynamic interaction affinities (Kd values), rather than IC50 values that are dependent on ATP concentrations. The assay uses a DNA-tagged version of the protein kinase, and an immobilized ligand bound to a solid support. Compounds that directly or indirectly prevent kinase binding to the immobilized ligand reduce the amount of kinase captured on the solid support, which is detected using an ultra-sensitive qPCR method. Affinity constants reported from the assay have been reported to be independent of the immobilized ligand used that is coupled to the solid support (See supplemental information in Fabian, M. A. et. al., (2005) Nat. Biotechnol. 23, 329-336; Wodicka, L. M. et. al., (2010) Chem. Biol. 17, 1241-1249.)
(§2) Kinase-tagged T7 phage strains were prepared in an E. coli host derived from the BL21 strain. E. coli were grown to log-phase and infected with T7 phage and incubated with shaking at 32 °C until lysis. The lysates were centrifuged and filtered to remove cell debris. The remaining kinases were produced in HEK-293 cells and subsequently tagged with DNA for qPCR detection. Streptavidin-coated magnetic beads were treated with biotinylated small molecule ligands for 30 minutes at room temperature to generate affinity resins for kinase assays. The liganded beads were blocked with excess biotin and washed with blocking buffer (SeaBlock (Pierce), 1% BSA, 0.05% Tween 20, 1 mM DTT) to remove unbound ligand and to reduce non-specific binding. […] Test compounds were prepared as 111x stocks in 100% DMSO. Kds were determined using an 11-point 3-fold compound dilution series with three DMSO control points. All compounds for Kd measurements are distributed by acoustic transfer (non-contact dispensing) in 100% DMSO. The compounds were then diluted directly into the assays such that the final concentration of DMSO was 0.9%. All reactions were performed in polypropylene 384-well plates. Each was a final volume of 0.02 mL. The assay plates were incubated at room temperature with shaking for 1 hour and the affinity beads were washed with wash buffer (1×PBS, 0.05% Tween 20). The beads were then re-suspended in elution buffer (1×PBS, 0.05% Tween 20, 0.5 μM nonbiotinylated affinity ligand) and incubated at room temperature with shaking for 30 minutes. The kinase concentration in the eluates was measured by qPCR. Binding constants (Kds) were calculated with a standard dose-response curve using the Hill equation. The Hill Slope was set to −1. Curves were fitted using a non-linear least square fit with the Levenberg-Marquardt algorithm.
as §1, with “9-12” for “1-8”
(§3) Kinase-tagged T7 phage strains were prepared in an E. coli host derived from the BL21 strain. […]

The target of test [2] is IRAK1 (Homo sapiens, UniProt P51617). Nature of the test: DiscoverX KINOMEscan active site-directed competition binding, IRAK1. To be noted: no ATP.
IRAK1, sequence (P51617 whole entry): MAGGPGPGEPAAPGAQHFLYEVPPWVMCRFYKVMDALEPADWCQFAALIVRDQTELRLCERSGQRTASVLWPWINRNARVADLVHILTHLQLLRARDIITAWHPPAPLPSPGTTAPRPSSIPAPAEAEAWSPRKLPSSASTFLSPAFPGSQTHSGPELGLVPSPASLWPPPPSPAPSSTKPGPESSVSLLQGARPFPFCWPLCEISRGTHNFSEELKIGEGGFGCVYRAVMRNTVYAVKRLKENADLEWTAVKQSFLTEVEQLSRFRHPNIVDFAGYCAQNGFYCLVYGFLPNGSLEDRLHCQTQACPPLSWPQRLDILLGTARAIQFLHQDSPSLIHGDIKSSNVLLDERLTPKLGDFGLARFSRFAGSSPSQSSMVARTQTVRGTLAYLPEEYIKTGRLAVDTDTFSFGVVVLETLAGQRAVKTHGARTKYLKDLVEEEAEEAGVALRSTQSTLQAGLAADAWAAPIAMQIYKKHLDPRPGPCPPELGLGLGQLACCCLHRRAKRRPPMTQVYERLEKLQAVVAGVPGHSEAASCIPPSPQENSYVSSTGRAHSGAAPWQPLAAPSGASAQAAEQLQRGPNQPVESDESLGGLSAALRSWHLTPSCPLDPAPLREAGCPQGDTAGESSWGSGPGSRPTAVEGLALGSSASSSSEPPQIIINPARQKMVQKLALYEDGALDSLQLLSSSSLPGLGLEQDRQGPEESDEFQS
Description: as §1, §2
as §1, with “9-12” for “1-8”
as §3

Broadly, the Kd is the concentration at which binding is half-saturated.

`COc1cn2ncc(-c3nc(N[C@H]4CNCC[C@@H]4F)ncc3F)c2nc1C(C)(C)O` [Compound 6a, 2-(3-(5-fluoro-2-(((3S,4S)-4-fluoropiperidin-3-yl)amino)pyrimidin-4-yl)-6-methoxypyrazolo[1,5-a]pyrimidin-5-yl)propan-2-ol]: the Kd in test [1] (Table 19) came out at 4.8 nM; in test [2] (Table 18), 0.28 nM.
Turning to `COc1cn2ncc(-c3nc(N[C@H]4CNCC[C@@H]4F)c(C#N)cc3F)c2nc1C1CC1` [Compound 7, 6-(5-cyclopropyl-6-methoxypyrazolo[1,5-a]pyrimidin-3-yl)-5-fluoro-2-(((3S,4S)-4-fluoropiperidin-3-yl)amino)nicotinonitrile], the Kd was 0.68 nM in test [1] (Table 13) and less than 0.17 nM in test [2] (Table 12).
As for `COc1cn2ncc(-c3cncc(N[C@H]4CNCC[C@@H]4F)n3)c2nc1C1CC1` [Compound 12a, 6-(5-cyclopropyl-6-methoxypyrazolo[1,5-a]pyrimidin-3-yl)-N-((3S,4S)-4-fluoropiperidin-3-yl)pyrazin-2-amine], the Kd was 4.6 nM in test [1] (Table 19) and 0.78 nM in test [2] (Table 18).
As to `COc1cn2ncc(-c3nc(N[C@H]4CNCC[C@@H]4F)c(C#N)cc3F)c2nc1C(C)(C)O` [Compound 10, 5-fluoro-2-(((3S,4S)-4-fluoropiperidin-3-yl)amino)-6-(5-(2-hydroxypropan-2-yl)-6-methoxypyrazolo[1,5-a]pyrimidin-3-yl)nicotinonitrile], the Kd came to 5.4 nM in test [1] (Table 13) and 0.81 nM in test [2] (Table 12).
As for `COc1cn2ncc(-c3nc(N[C@@H]4CCCNC4)ncc3F)c2nc1C1CC1` [Compound 14a, (R)-4-(5-cyclopropyl-6-methoxypyrazolo[1,5-a]pyrimidin-3-yl)-5-fluoro-N-(piperidin-3-yl)pyrimidin-2-amine], the Kd in test [1] (Table 19) was 1.6 nM; in test [2] (Table 18), less than 0.17 nM.
For `COc1cn2ncc(-c3nc(N[C@H]4CNCC[C@@H]4F)ncc3F)c2nc1C1CC1` [Compound 15a, 4-(5-cyclopropyl-6-methoxypyrazolo[1,5-a]pyrimidin-3-yl)-5-fluoro-N-((3S,4S)-4-fluoropiperidin-3-yl)pyrimidin-2-amine], in that order: 1.4 nM and less than 0.17 nM.
For `COc1cn2ncc(-c3ccnc(N[C@H]4CNCC[C@@H]4F)n3)c2nc1C1CC1` [Compound 7a, 4-(5-cyclopropyl-6-methoxypyrazolo[1,5-a]pyrimidin-3-yl)-N-((3S,4S)-4-fluoropiperidin-3-yl)pyrimidin-2-amine], the Kd in test [1] (Table 19) came to 12 nM; in test [2] (Table 18), 0.53 nM.
`COc1cn2ncc(-c3nc(N[C@H]4CNCC[C@@H]4F)c(F)cc3F)c2nc1C(C)(C)O` [Compound 13, 2-(3-(3,5-difluoro-6-(((3S,4S)-4-fluoropiperidin-3-yl)amino)pyridin-2-yl)-6-methoxypyrazolo[1,5-a]pyrimidin-5-yl)propan-2-ol]: the Kd in test [1] (Table 13) is 3.7 nM; in test [2] (Table 12), 0.27 nM.
